# Data: ChEMBL document CHEMBL6134817, “Novel gut-restricted bivalent agonists targeting mucosal 5-HT4R: Design, synthesis, and biological evaluation” (Eur J Med Chem, 2025)
# The source made the active and inactive calls. No cut-off for these calls is given here.
# Experiments:
# [1] = target: T1, 5-hydroxytryptamine receptor 4 (Homo sapiens, UniProt Q13639); assay: Agonist activity at full-length human 5-HT4R stably expressed in HEK293 cells assessed as increase in intracellular cAMP level incubated for 30 mins under dark condition by reporter gene assay; type: functional, cell-based
# T1 sequence (Q13639 whole entry): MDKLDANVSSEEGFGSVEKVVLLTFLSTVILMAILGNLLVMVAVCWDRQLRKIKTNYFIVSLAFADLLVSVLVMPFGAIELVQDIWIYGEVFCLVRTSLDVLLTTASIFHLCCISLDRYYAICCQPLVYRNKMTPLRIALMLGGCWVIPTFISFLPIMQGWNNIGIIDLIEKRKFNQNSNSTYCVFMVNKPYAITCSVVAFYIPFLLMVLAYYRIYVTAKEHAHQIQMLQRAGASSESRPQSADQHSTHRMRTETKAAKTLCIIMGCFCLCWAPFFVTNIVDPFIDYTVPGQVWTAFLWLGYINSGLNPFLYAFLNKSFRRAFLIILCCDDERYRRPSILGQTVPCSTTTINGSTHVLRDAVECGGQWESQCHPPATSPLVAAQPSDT
# [2] = target: T1, 5-hydroxytryptamine receptor 4; assay: Agonist activity at full-length human 5-HT4R stably expressed in HEK293 cells assessed as increase in intracellular cAMP level incubated for 30 mins under dark condition by reporter gene assay relative to control; type: functional, cell-based; conditions: filed as agonist
# [3] = target: T1, 5-hydroxytryptamine receptor 4; assay: Displacement of [3H]-GR113808 from full-length human 5-HT4R stably expressed in HEK293 cell membrane by MicroBeta2 Reader analysis; type: cell membranes
# [4] = Apparent permeability coefficient of compound at 10 uM incubated for 4 hrs by PAMPA; type: ADME
# [5] = Permeability of compound assessed as compound recovery at 10 uM incubated for 4 hrs by PAMPA; type: ADME; conditions: read-out: Drug recovery
# [6] = target: T2, Voltage-gated inwardly rectifying potassium channel KCNH2 (Homo sapiens, UniProt Q12809); assay: Inhibition of hERG; type: toxicity
# T2 sequence (Q12809 whole entry): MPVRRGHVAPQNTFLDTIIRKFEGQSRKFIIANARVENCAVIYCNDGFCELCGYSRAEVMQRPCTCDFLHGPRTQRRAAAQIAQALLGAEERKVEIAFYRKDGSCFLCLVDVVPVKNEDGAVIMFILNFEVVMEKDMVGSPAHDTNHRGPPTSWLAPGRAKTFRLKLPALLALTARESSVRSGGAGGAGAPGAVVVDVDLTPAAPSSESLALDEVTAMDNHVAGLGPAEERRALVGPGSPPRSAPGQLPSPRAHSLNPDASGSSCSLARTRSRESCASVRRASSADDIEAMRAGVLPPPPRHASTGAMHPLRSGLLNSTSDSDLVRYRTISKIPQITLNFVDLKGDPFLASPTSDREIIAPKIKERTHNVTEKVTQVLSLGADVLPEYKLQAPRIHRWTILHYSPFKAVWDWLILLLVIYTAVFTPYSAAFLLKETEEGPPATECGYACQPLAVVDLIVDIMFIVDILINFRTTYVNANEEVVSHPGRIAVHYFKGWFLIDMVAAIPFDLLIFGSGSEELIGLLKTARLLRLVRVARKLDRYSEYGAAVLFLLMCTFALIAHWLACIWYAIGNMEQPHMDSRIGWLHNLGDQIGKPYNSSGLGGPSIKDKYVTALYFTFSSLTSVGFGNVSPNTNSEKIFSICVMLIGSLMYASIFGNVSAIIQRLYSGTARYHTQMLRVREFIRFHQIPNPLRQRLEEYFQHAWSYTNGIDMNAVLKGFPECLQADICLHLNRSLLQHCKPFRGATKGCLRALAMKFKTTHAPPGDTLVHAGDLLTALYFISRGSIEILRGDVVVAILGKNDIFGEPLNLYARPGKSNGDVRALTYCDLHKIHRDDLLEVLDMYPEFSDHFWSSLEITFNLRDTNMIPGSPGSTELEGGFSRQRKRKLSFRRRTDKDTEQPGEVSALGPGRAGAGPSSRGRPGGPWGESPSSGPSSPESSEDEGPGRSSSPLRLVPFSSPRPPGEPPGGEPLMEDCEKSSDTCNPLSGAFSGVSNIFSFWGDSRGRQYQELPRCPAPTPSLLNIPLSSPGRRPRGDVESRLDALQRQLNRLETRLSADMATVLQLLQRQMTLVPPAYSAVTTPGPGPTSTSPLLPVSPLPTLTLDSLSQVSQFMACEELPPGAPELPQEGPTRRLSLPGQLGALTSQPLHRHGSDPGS
# [7] = Metabolic stability in human liver microsomes assessed as intrinsic clearance measured per mg protein at 10 uM measured up to 60 mins in presence of NADPH by LC-MS/MS analysis; type: ADME, Microsome; conditions: read-out: CLH
# [8] = Drug excretion in feces of fasted male Sprague-Dawley rat at 5 mg/kg, po measured for 24 hrs by LC-MS/MS analysis; type: ADME, organism-based; conditions: faeces, read-out: Drug excretion
# [9] = Drug excretion in fasted male Sprague-Dawley rat at 5 mg/kg, po measured for 24 hrs by LC-MS/MS analysis; type: ADME, organism-based; conditions: in vivo, read-out: Drug excretion
# [10] = target: 5-hydroxytryptamine receptor 1B (Homo sapiens, UniProt P28222); assay: Inhibition of 5-HT1BR (unknown origin)
# Chain of 5-hydroxytryptamine receptor 1B (P28222 whole entry): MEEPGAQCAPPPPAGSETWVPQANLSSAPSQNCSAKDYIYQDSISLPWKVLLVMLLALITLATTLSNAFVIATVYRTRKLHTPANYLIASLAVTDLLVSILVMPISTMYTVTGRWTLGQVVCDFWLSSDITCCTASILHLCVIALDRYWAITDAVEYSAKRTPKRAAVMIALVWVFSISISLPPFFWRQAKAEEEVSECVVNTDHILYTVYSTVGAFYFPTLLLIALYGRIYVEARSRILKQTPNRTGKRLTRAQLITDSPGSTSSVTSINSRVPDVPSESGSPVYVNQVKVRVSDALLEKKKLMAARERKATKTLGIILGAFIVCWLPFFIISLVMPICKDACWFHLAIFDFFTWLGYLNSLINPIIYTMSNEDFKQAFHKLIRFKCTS
# [11] = target: T1, 5-hydroxytryptamine receptor 4; assay: Inhibition of 5-HT4R (unknown origin)
# [12] = target: 5-hydroxytryptamine receptor 2A (Homo sapiens, UniProt P28223); assay: Inhibition of 5-HT2AR (unknown origin)
# Chain of 5-hydroxytryptamine receptor 2A (P28223 whole entry): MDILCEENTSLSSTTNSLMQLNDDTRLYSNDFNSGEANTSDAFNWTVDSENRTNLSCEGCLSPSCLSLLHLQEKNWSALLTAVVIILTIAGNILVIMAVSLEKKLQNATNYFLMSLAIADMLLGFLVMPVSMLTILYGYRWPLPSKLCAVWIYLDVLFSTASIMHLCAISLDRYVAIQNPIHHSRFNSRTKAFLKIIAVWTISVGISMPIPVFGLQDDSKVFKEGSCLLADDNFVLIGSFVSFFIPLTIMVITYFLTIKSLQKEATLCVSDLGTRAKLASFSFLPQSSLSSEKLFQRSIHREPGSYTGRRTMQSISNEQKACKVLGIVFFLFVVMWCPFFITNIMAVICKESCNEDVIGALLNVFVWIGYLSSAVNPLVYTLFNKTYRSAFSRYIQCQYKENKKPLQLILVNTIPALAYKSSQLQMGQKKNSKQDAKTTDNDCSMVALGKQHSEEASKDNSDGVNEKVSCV
# [13] = target: 5-hydroxytryptamine receptor 2B (Homo sapiens, UniProt P41595); assay: Inhibition of 5-HT2BR (unknown origin)
# Chain of 5-hydroxytryptamine receptor 2B (P41595 whole entry): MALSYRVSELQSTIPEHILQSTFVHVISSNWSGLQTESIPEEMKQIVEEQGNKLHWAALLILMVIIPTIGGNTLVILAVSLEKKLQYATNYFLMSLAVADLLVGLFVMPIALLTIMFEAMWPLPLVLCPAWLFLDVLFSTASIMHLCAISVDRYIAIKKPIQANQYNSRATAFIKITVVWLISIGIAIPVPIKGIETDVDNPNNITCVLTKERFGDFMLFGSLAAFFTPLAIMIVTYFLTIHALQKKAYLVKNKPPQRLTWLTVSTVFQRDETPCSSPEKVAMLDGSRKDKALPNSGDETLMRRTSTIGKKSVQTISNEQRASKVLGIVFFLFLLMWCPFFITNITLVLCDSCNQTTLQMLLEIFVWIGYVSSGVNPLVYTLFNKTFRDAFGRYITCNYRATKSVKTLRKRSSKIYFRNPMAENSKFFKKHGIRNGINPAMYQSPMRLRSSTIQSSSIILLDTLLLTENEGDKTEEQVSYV
# [14] = target: 5-hydroxytryptamine receptor 7 (Homo sapiens, UniProt P34969); assay: Inhibition of 5-HT7R (unknown origin)
# Chain of 5-hydroxytryptamine receptor 7 (P34969 whole entry): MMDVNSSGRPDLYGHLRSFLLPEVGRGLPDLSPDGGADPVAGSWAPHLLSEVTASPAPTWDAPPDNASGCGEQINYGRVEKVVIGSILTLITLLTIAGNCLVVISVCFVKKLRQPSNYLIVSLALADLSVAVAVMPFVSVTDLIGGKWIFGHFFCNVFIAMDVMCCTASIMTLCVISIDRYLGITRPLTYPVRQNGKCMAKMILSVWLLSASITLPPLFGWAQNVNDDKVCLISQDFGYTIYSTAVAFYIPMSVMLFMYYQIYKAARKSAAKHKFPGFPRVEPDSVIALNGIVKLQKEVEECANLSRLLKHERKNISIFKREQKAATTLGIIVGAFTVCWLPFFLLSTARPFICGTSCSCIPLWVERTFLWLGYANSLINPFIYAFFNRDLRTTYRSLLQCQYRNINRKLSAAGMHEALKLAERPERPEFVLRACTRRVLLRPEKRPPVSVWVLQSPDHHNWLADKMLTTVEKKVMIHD
# [15] = target: 5-hydroxytryptamine receptor 5A (Homo sapiens, UniProt P47898); assay: Inhibition of 5-HT5R (unknown origin)
# Chain of 5-hydroxytryptamine receptor 5A (P47898 whole entry): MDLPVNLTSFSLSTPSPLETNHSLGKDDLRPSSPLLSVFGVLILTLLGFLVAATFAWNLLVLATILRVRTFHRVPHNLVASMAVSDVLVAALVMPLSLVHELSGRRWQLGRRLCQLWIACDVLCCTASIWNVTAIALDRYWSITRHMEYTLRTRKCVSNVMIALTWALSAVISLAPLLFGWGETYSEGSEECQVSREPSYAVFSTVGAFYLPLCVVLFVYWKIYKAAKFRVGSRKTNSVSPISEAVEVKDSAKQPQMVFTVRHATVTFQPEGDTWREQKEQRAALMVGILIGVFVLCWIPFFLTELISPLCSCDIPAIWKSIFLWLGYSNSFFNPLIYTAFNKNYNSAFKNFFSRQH
# [16] = Cmax in fasted male C57BL/6J mouse at 10 mg/kg, po measured after 1 hr by LC-MS/MS analysis; type: ADME, organism-based; conditions: in vivo
# [17] = target: Serotonin 3 (5-HT3) receptor; assay: Inhibition of 5-HT3R (unknown origin); type: protein-complex assay, Homo sapiens
# [18] = Stability in SGF at pH 1.5 assessed as half life by LC-MS/MS analysis; type: physicochemical
# Mus musculus [19] = assay: Anti-constipation effect in mouse assessed as increase in fecal output at 3 to 10 mg/kg, po measured after 1 hr; type: functional, organism-based; conditions: dose 3-10 mg/kg
# [20] = Metabolic stability in human liver microsomes assessed as half life at 10 uM measured up to 60 mins in presence of NADPH by LC-MS/MS analysis; type: ADME, Microsome
# [21] = Metabolic stability in rat liver microsomes assessed as half life at 10 uM measured up to 60 mins in presence of NADPH by LC-MS/MS analysis; type: ADME, Microsome
# [22] = target: T2, Voltage-gated inwardly rectifying potassium channel KCNH2; assay: Inhibition of hERG stably expressed in HEK293 cells by patch-clamp method; type: toxicity, cell-based
# [23] = Stability in mouse plasma assessed as half life measured up to 120 mins by LC-MS/MS analysis; type: ADME, cell-free
# [24] = target: T3, 5-hydroxytryptamine receptor 2C (Homo sapiens, UniProt P28335); assay: Inhibition of 5-HT2CR (unknown origin)
# T3 sequence (P28335 whole entry): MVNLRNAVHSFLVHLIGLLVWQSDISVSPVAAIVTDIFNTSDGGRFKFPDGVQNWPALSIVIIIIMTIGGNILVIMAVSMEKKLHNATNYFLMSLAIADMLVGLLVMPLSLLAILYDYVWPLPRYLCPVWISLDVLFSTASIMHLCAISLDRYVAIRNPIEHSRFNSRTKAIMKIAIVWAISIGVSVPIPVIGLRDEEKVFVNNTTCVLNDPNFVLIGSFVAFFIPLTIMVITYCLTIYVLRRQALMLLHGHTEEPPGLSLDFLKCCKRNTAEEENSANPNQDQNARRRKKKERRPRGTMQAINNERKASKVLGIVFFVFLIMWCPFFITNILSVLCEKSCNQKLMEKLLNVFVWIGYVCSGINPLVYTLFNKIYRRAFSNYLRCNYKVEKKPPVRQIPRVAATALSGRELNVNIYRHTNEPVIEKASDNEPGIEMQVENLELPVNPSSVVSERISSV
# Mus musculus [25] = assay: Anti-constipation effect in mouse assessed as decrease in bead expulsion time at 3 to 15 mg/kg, po pretreated with compound 1 hr prior to glass bead insertion into distal colon measured after regaining conscious; type: functional, organism-based; conditions: dose 3-15 mg/kg
# [26] = Metabolic stability in mouse liver microsomes assessed as half life at 10 uM measured up to 60 mins in presence of NADPH by LC-MS/MS analysis; type: ADME, Microsome
# [27] = Metabolic stability in mouse liver microsomes assessed as intrinsic clearance measured per mg protein at 10 uM measured up to 60 mins in presence of NADPH by LC-MS/MS analysis; type: ADME, Microsome; conditions: read-out: CLH
# [28] = Metabolic stability in rat liver microsomes assessed as intrinsic clearance measured per mg protein at 10 uM measured up to 60 mins in presence of NADPH by LC-MS/MS analysis; type: ADME, Microsome; conditions: read-out: CLH
# [29] = Stability in SIF at pH 6.8 assessed as half life by LC-MS/MS analysis; type: physicochemical
# [30] = target: 5-hydroxytryptamine receptor 6 (Homo sapiens, UniProt P50406); assay: Inhibition of 5-HT6R (unknown origin)
# Chain of 5-hydroxytryptamine receptor 6 (P50406 whole entry): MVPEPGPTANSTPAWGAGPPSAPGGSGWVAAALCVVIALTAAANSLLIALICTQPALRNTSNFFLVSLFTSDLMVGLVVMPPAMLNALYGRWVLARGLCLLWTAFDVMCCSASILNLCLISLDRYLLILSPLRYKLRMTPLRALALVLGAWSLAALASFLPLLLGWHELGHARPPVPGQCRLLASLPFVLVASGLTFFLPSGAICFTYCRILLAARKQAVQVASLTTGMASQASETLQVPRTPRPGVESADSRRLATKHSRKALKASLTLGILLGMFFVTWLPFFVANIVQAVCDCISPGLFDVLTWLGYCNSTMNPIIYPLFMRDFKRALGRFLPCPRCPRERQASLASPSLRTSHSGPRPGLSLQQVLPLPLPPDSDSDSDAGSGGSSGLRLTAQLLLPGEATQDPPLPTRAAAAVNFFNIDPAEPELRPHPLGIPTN
# Mus musculus [31] = assay: Anti-constipation effect in mouse assessed as increase in fecal water content at 3 to 10 mg/kg, po measured after 1 hr; type: functional, organism-based; conditions: dose 3-10 mg/kg
# Mus musculus [32] = assay: Induction of whole-gut transit in mouse assessed as decrease in time for carmine red dye excretion administered orally via gavage measured for every 5 mins; type: functional, organism-based; conditions: dose 3-15 mg/kg, route po
# [33] = target: T4, 5-hydroxytryptamine receptor 1A (Homo sapiens, UniProt P08908); assay: Inhibition of 5-HT1AR (unknown origin)
# T4 sequence (P08908 whole entry): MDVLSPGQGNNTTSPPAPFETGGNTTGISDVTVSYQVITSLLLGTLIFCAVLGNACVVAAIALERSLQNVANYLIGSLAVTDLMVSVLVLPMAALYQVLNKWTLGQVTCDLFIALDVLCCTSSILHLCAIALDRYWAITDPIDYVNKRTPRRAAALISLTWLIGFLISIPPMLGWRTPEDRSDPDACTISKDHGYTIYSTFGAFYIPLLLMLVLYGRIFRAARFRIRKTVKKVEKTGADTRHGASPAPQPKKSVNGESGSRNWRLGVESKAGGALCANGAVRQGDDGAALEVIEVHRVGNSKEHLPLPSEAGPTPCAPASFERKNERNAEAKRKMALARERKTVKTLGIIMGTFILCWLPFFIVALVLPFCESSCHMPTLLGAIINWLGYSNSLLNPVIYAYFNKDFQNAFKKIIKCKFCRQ
smiles,measurement,setting,value
Nc1c(Cl)cc(C(=O)NC2CCN(CCC(=O)NCCOCCOCCNC(=O)NCCCCNC(=O)NCCOCCOCCNC(=O)CCN3CCC(NC(=O)c4cc(Cl)c(N)c5c4OCC5)CC3)CC2)c2c1CCO2,EC50,[1],6.46 nM
same,Efficacy,[2],112%
same,Ki,[3],197 nM
Nc1c(Cl)cc(C(=O)NCC2CCN(CCCCCNC(=O)CCOCCOCCNC(=O)NCCCCNC(=O)NCCOCCOCCC(=O)NCCCCCN3CCC(CNC(=O)c4cc(Cl)c(N)c5c4OCC5)CC3)CC2)c2c1CCO2,EC50,[1],0.17 nM
same,Efficacy,[2],113%
same,Ki,[3],1.49 nM
Nc1c(Cl)cc(C(=O)NC2CCN(CCCC(=O)NCCOCCNC(=O)NCCOCCNC(=O)CCCN3CCC(NC(=O)c4cc(Cl)c(N)c5c4OCC5)CC3)CC2)c2c1CCO2,EC50,[1],0.33 nM
same,Efficacy,[2],88.6%
same,Ki,[3],75 nM
COCCCN1CCC(NC(=O)c2cc(Cl)c(N)c3c2OCC3)CC1 [PRUCALOPRIDE],"Papp at 4 h, 10 µM",[4],< 0.0185 ×10⁻⁶ cm/s
same,"recovery at 4 h, 10 µM",[5],92.4%
same,Efficacy,[2],110%
same,IC50,[6],4100 nM
Nc1c(Cl)cc(C(=O)NCC2CCN(CCCCCC(=O)NCCOCCOCCNC(=O)NCCCCNC(=O)NCCOCCOCCNC(=O)CCCCCN3CCC(CNC(=O)c4cc(Cl)c(N)c5c4OCC5)CC3)CC2)c2c1CCO2,microsomal CLint at 10 µM,[7],64.8 µL/min/mg
same,dose excreted at 24 h,[8],~100%
same,dose excreted at 24 h,[9],~100%
same,IC50,[10],> 10000 nM
same,IC50,[11],25100 nM
same,"Papp at 4 h, 10 µM",[4],3.1 ×10⁻⁶ cm/s
same,IC50,[12],> 1000 nM
same,IC50,[13],> 1000 nM
same,"recovery at 4 h, 10 µM",[5],83.1%
same,IC50,[14],> 10000 nM
same,IC50,[15],> 10000 nM
same,Cmax,[16],8.5 ng/mL
same,IC50,[17],> 10000 nM
same,half-life,[18],> 24 h
same,Activity,Mus musculus [19],Active; Efficacy Comparable To Prucalopride Succinate At 10 Mg/Kg
same,half-life at 10 µM,[20],0.356 h
same,half-life at 10 µM,[21],4.62 h
same,EC50,[1],0.41 nM
same,IC50,[22],> 100000 nM
same,half-life,[23],3.06 h
same,IC50,[24],> 10000 nM
same,Activity,Mus musculus [25],Active
same,Efficacy,[2],99.6%
same,Ki,[3],13.1 nM
same,half-life at 10 µM,[26],7.7 h
same,microsomal CLint at 10 µM,[27],3 µL/min/mg
same,microsomal CLint at 10 µM,[28],5 µL/min/mg
same,half-life,[29],> 24 h
same,IC50,[30],> 1000 nM
same,Activity,Mus musculus [31],Active; Efficacy Comparable To Prucalopride Succinate At 10 Mg/Kg
same,Activity,Mus musculus [32],Dose-dependent-effect; Superior To Prucalopride Succinate At 10 Mg/Kg
same,IC50,[33],> 10000 nM
CN(CCOCCNC(=O)NCCOCCN(C)C(=O)CCCN1CCC(NC(=O)c2cc(Cl)c(N)c3c2OCC3)CC1)C(=O)CCCN1CCC(NC(=O)c2cc(Cl)c(N)c3c2OCC3)CC1,EC50,[1],0.07 nM
same,Efficacy,[2],95.3%
same,Ki,[3],98.9 nM
Nc1c(Cl)cc(C(=O)NCC2CCN(CCC(=O)NCCOCCOCCNC(=O)NCCCCNC(=O)NCCOCCOCCNC(=O)CCN3CCC(CNC(=O)c4cc(Cl)c(N)c5c4OCC5)CC3)CC2)c2c1CCO2,EC50,[1],0.4 nM
same,Efficacy,[2],107%
same,Ki,[3],54.8 nM
Nc1c(Cl)cc(C(=O)NC2CCN(CCC(=O)NCCOCCOCCNC(=O)CCC(=O)NCCOCCOCCNC(=O)CCN3CCC(NC(=O)c4cc(Cl)c(N)c5c4OCC5)CC3)CC2)c2c1CCO2,EC50,[1],4.71 nM
same,Efficacy,[2],116%
Nc1c(Cl)cc(C(=O)NC2CCN(CCC(=O)NCCOCCOCCOCCNC(=O)NCCCCNC(=O)NCCOCCOCCOCCNC(=O)CCN3CCC(NC(=O)c4cc(Cl)c(N)c5c4OCC5)CC3)CC2)c2c1CCO2,EC50,[1],6.71 nM
same,Efficacy,[2],125%
Nc1c(Cl)cc(C(=O)NC2CCN(CCC(=O)NCCOCCOCCNC(=O)N[C@H]3CC[C@@H](NC(=O)NCCOCCOCCNC(=O)CCN4CCC(NC(=O)c5cc(Cl)c(N)c6c5OCC6)CC4)CC3)CC2)c2c1CCO2,EC50,[1],2.08 nM
same,Efficacy,[2],108%
Nc1c(Cl)cc(C(=O)NC2CCN(CCC(=O)NCCOCCOCCNC(=O)C(O)C(O)C(=O)NCCOCCOCCNC(=O)CCN3CCC(NC(=O)c4cc(Cl)c(N)c5c4OCC5)CC3)CC2)c2c1CCO2 (stereo not drawn),EC50,[1],3.28 nM
same,Efficacy,[2],123%
Nc1c(Cl)cc(C(=O)NC2CCN(CCC(=O)NCCCCCCCCNC(=O)NCCCCCCNC(=O)NCCCCCCCCNC(=O)CCN3CCC(NC(=O)c4cc(Cl)c(N)c5c4OCC5)CC3)CC2)c2c1CCO2,EC50,[1],17.6 nM
same,Efficacy,[2],90.9%
Nc1c(Cl)cc(C(=O)NC2CCN(CCC(=O)NCCOCCOCCNC(=O)/C=C/C(=O)NCCOCCOCCNC(=O)CCN3CCC(NC(=O)c4cc(Cl)c(N)c5c4OCC5)CC3)CC2)c2c1CCO2,EC50,[1],6.69 nM
same,Efficacy,[2],98%
